Measured values from article PMC7794376 (Nature Communications, 2021).
“And” between values parts separate entries of the source, which are not always exact repeats. Equal entries are not always repeated.

Legend:
Format in all cases: biochemical
[1] = molecular target: T1, MtbCoaBC (Mycobacterium tuberculosis, UniProt P9WNZ1); assay: High-throughput end-point pyrophosphate quantification assay (Biomol Green)
[2] = molecular target: T1, MtbCoaBC; assay: biochemical; conditions: for Activity %: relative to average CT; for Activity % / Inhibition % / Activity: replicates R1-R3; for Activity: slope of absorbance at 360 nm vs time (s); for inhibition, replicates / reaction rate (slope of absorbance at 360 nm over time), replicates: IC50 MtbCoaBC AcCoA
[3] = molecular target: T1, MtbCoaBC; assay: Competition assays, first half of CoaB reaction (EnzChek, variable CTP or PPA); conditions: for mode of inhibition: in words
[4] = molecular target: T1, MtbCoaBC; assay: CMP quantification assay (UPLC), second half of CoaB reaction, variable L-cysteine; conditions: for CMP formation rate, uM CMP/uM protein.s-1: MtbCoaBC 32nM, replicates R1-R3
[5] = AcCoA concentration 512 (log 2.70927)
[6] = AcCoA concentration 1024 (log 3.0103)

T1 sequence (P9WNZ1 whole entry): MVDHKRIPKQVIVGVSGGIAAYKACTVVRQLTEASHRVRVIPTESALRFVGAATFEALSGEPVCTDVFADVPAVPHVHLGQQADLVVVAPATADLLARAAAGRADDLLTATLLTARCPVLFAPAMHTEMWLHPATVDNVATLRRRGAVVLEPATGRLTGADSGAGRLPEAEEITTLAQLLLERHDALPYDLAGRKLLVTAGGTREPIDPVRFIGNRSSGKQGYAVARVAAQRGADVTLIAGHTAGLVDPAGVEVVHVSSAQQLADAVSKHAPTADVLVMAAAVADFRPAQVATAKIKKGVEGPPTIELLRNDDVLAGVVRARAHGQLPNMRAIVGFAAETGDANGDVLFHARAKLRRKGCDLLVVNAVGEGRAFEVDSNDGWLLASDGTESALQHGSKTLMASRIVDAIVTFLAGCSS

SMILES: O=c1cc(-c2ccccc2)oc2cc(O)c(O)c(O)c12 [2a]
- IC50 [1]: 3.1 µM

SMILES: CC(=O)SCCNC(=O)CCNC(=O)[C@H](O)C(C)(C)COP(=O)(O)OP(=O)(O)OC[C@H]1O[C@@H](n2cnc3c(N)ncnc32)[C@H](O)[C@@H]1OP(=O)(O)O [AcCoA, acetyl-CoA]
- Activity % ([2]; 8 uM AcCoA): 102.2% and 99.12% and 97.26%
- Inhibition % ([2]; 8 uM AcCoA): 0.88% and 2.74% and -2.21%
- Activity ([2]; 8 uM AcCoA): 0.0001687 and 0.0001636 and 0.0001606
- Activity % ([2]; 16 uM AcCoA): 97.8% and 95.95%
- Inhibition % ([2]; 16 uM AcCoA): 2.20% and 4.05%
- Activity ([2]; 16 uM AcCoA): 0.0001621 and 0.0001615 and 0.0001584
- Activity % ([2]; 32 uM AcCoA): 83.56% and 84.79% and 80.02%
- Inhibition % ([2]; 32 uM AcCoA): 15.21% and 19.98% and 16.44%
- Activity ([2]; 32 uM AcCoA): 0.0001379 and 0.00014 and 0.0001321
- Activity % ([2]; 64 uM AcCoA): 72.03% and 75.67% and 69.98%
- Inhibition % ([2]; 64 uM AcCoA): 24.33% and 30.02% and 27.97%
- Activity ([2]; 64 uM AcCoA): 0.0001189 and 0.0001249 and 0.0001155
- Activity % ([2]; 128 uM AcCoA): 46.95% and 48.75% and 44.16%
- Inhibition % ([2]; 128 uM AcCoA): 51.25% and 55.84% and 53.05%
- Activity ([2]; 128 uM AcCoA): 0.000077520 and 0.000080489 and 0.000072900
- Activity % ([2]; 256 uM AcCoA): 25.68% and 25.48% and 26.76%
- Inhibition % ([2]; 256 uM AcCoA): 74.52% and 73.24% and 74.32%
- Activity ([2]; 256 uM AcCoA): 0.000042403 and 0.000042072 and 0.000044186
- IC50 ([2]; CoaB activity, […] CTP, […] PPA, 500 µM L-cysteine, average of three independent experiments ± SD, read-out: IC50 EnzChek MtbCoaBC): 121 ± 9 µM
- inhibition, replicates [2, 5]: 81.65 and 87.30 and 84.02
- reaction rate (slope of absorbance at 360 nm over time), replicates [2, 5]: 0.000026380 and 0.000030299 and 0.000020964
- inhibition, replicates [2, 6]: 99.03 and 98.19 and 97.42
- reaction rate (slope of absorbance at 360 nm over time), replicates [2, 6]: 0.000004262 and 0.000001602 and 0.000002982
- mode of inhibition ([3]; relative to CTP): competitive
- mode of inhibition ([3]; relative to PPA): competitive
- Inibition type ([3]; variable substrate CTP): C (C competitive inhibition)
- Ki ([3]; variable substrate CTP): 22.5 ± 1.7 µM
- Inibition type ([3]; variable substrate PPA): C (C competitive inhibition)
- Ki ([3]; variable substrate PPA): 22.4 ± 1.4 µM
- CMP formation rate, uM CMP/uM protein.s-1 ([4]; 32uM AcCoA, 31.25 uM cysteine): 0.1004 uM CMP/uM protein.s-1 and 0.1195 uM CMP/uM protein.s-1 and 0.1103 uM CMP/uM protein.s-1
- CMP formation rate, uM CMP/uM protein.s-1 ([4]; 32uM AcCoA, 62.5 uM cysteine): 0.1434 uM CMP/uM protein.s-1 and 0.1547 uM CMP/uM protein.s-1 and 0.1394 uM CMP/uM protein.s-1
- CMP formation rate, uM CMP/uM protein.s-1 ([4]; 32uM AcCoA, 250 uM cysteine): 0.2114 uM CMP/uM protein.s-1 and 0.2235 uM CMP/uM protein.s-1 and 0.2345 uM CMP/uM protein.s-1
- CMP formation rate, uM CMP/uM protein.s-1 ([4]; 32uM AcCoA, 500 uM cysteine): 0.2276 uM CMP/uM protein.s-1 and 0.2314 uM CMP/uM protein.s-1 and 0.2458 uM CMP/uM protein.s-1
- CMP formation rate, uM CMP/uM protein.s-1 ([4]; 64uM AcCoA, 31.25 uM cysteine): 0.08802 uM CMP/uM protein.s-1 and 0.06801 uM CMP/uM protein.s-1 and 0.07425 uM CMP/uM protein.s-1
- CMP formation rate, uM CMP/uM protein.s-1 ([4]; 64uM AcCoA, 62.5 uM cysteine): 0.1006 uM CMP/uM protein.s-1 and 0.1253 uM CMP/uM protein.s-1 and 0.1155 uM CMP/uM protein.s-1
- CMP formation rate, uM CMP/uM protein.s-1 ([4]; 64uM AcCoA, 250 uM cysteine): 0.1479 uM CMP/uM protein.s-1 and 0.156 uM CMP/uM protein.s-1 and 0.1565 uM CMP/uM protein.s-1
- CMP formation rate, uM CMP/uM protein.s-1 ([4]; 64uM AcCoA, 500 uM cysteine): 0.1756 uM CMP/uM protein.s-1 and 0.1564 uM CMP/uM protein.s-1 and 0.1555 uM CMP/uM protein.s-1
- CMP formation rate, uM CMP/uM protein.s-1 ([4]; 128uM AcCoA, 31.25 uM cysteine): 0.04605 uM CMP/uM protein.s-1 and 0.05632 uM CMP/uM protein.s-1 and 0.0514 uM CMP/uM protein.s-1
- CMP formation rate, uM CMP/uM protein.s-1 ([4]; 128uM AcCoA, 62.5 uM cysteine): 0.06616 uM CMP/uM protein.s-1 and 0.09648 uM CMP/uM protein.s-1 and 0.09325 uM CMP/uM protein.s-1
- CMP formation rate, uM CMP/uM protein.s-1 ([4]; 128uM AcCoA, 250 uM cysteine): 0.09625 uM CMP/uM protein.s-1 and 0.1011 uM CMP/uM protein.s-1 and 0.1018 uM CMP/uM protein.s-1
- CMP formation rate, uM CMP/uM protein.s-1 ([4]; 128uM AcCoA, 500 uM cysteine): 0.1011 uM CMP/uM protein.s-1 and 0.1154 uM CMP/uM protein.s-1 and 0.1123 uM CMP/uM protein.s-1
- mode of inhibition ([4]; relative to L-cysteine, in words): non-competitive inhibition
- Ki ([4]; variable substrate L-cysteine): 62.1 ± 2 µM

SMILES: O=C(c1ccccc1)c1ccc(O)c(O)c1O [compound 1a]
- IC50 ([1]; MtbCoaB activity, end-point, 2 µM CTP, 40 µM L-cysteine, 30 µM PPA, read-out: IC50 biomol green assay): 9 µM
